Values quoted from earlier work as cited in US8778869B2, “Tissue regeneration system” (Wisconsin Alumni Research Foundation, priority 2010, dated 2014).

B1: bone morphogenetic protein-2 (protein, listed as Homo sapiens)
chain: MVAGTRCLLALLLPQVLLGGAAGLVPELGRRKFAAASSGRPSSQPSDEVLSEFELRLLSMFGLKQRPTPSRDAVVPPYMLDLYRRHSGQPGSPAPDHRLERAASRANTVRSFHHEESLEELPETSGKTTRRFFFNLSSIPTEEFITSAELQVFREQMQDALGNNSSFHHRINIYEIIKPATANSKFPVTRLLDTRLVNQNASRWESFDVTPAVMRWTAQGHANHGFVVEVAHLEEKQGVSKRHVRISRSLHQDEHSWSQIRPLLVTFGHDGKGHPLHKREKRQAKHKQRKRLKSSCKRHPLYVDFSDVGWNDWIVAPPGYHAFYCHGECPFPLADHLNSTNHAIVQTLVNSVNSKIPKACCVPTELSAISMLYLDENEKVVLKNYQDMVVEGCGCR

Molecule	concentration of optimal in vitro biological activity
fibroblast growth factor-2 [FGF-2]	approximately 1 nM
B1	approximately 1 nM
